Source: patent US20230148005A1, “MACROCYCLIC COMPOUNDS AND USES THEREOF” (THESEUS PHARMACEUTICALS, INC., priority 2020, published 2023)
Read-outs that look alike come from different tables or passages of the source.

Assays:
Ba/F3 Parental = assay: Ba/F3 viability assay (CellTiter-Glo), parental; type: cell-based
Summary of the method: (§1)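 Antiproliferative activity is assessed through a cell viability read-out, run in parallel across the mutant-EGFR-driven and parental Ba/F3 cells.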

Ba/F3 EGFR-Del19/C797S = Ba/F3 EGFR-Del19/C797S (Homo sapiens, UniProt P00533, C797S, cells depend on it, form not given); assay: Ba/F3 viability assay (CellTiter-Glo), DC; type: cell-based; settings: anti-proliferation, read-out: BaF3 DC IC50
Summary of the method: as §1

EGFR^L858R = EGFR^L858R (Homo sapiens, UniProt P00533, L858R); assay: in vitro kinase assay (HTRF KinEASE-TK kit), L; type: biochemical; settings: kinase inhibition
Sequence of EGFR^L858R (P00533 25-1210 L858R): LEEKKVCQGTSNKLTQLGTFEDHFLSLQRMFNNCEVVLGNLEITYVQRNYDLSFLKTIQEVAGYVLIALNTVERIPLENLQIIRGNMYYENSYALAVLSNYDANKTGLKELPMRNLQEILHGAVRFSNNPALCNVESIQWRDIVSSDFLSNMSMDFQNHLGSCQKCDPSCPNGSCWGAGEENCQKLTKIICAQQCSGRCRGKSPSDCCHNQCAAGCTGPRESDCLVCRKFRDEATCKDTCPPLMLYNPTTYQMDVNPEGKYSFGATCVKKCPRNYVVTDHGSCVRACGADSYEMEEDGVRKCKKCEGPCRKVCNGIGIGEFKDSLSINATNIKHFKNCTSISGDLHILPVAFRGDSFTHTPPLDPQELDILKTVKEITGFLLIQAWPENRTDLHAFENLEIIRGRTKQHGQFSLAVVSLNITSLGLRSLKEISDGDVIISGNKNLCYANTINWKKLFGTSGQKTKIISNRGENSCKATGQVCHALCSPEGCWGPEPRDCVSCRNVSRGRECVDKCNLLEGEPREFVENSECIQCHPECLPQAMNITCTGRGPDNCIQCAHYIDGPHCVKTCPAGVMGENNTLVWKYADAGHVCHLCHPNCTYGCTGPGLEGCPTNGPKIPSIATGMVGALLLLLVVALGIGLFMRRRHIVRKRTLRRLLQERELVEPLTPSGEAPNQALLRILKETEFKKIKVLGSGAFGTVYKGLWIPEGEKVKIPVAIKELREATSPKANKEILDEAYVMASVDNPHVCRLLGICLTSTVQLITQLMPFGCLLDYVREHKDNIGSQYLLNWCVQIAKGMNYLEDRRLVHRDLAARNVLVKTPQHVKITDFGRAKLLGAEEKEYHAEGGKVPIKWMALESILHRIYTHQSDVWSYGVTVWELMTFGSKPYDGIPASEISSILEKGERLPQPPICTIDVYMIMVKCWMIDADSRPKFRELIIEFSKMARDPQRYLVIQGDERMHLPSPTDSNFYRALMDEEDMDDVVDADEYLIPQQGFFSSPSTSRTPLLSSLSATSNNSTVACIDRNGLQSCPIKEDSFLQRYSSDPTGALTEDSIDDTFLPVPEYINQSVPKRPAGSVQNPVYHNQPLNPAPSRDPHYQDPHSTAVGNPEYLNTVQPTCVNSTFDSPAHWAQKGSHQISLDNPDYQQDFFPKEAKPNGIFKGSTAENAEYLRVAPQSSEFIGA
From the text: (§2) Assays using an in vitro kinase assay kit (HTRF KinEASE-TK kit) can be used to study the inhibitory activity of compounds described herein with respect to EGFR mutants such as EGFR^L858R, EGFR^L58R/T790M, and EGFR^L858R/T790M/C^797S.

Ba/F3 EGFR-Del19/T790M = Ba/F3 EGFR-Del19/T790M (Homo sapiens, UniProt P00533, T790M, cells depend on it, form not given); assay: Ba/F3 viability assay (CellTiter-Glo), DT; type: cell-based; settings: anti-proliferation, read-out: BaF3 DT IC50
Sequence of Ba/F3 EGFR-Del19/T790M (P00533 with tags, fused parts or gaps DEL746-750/T790M, form open): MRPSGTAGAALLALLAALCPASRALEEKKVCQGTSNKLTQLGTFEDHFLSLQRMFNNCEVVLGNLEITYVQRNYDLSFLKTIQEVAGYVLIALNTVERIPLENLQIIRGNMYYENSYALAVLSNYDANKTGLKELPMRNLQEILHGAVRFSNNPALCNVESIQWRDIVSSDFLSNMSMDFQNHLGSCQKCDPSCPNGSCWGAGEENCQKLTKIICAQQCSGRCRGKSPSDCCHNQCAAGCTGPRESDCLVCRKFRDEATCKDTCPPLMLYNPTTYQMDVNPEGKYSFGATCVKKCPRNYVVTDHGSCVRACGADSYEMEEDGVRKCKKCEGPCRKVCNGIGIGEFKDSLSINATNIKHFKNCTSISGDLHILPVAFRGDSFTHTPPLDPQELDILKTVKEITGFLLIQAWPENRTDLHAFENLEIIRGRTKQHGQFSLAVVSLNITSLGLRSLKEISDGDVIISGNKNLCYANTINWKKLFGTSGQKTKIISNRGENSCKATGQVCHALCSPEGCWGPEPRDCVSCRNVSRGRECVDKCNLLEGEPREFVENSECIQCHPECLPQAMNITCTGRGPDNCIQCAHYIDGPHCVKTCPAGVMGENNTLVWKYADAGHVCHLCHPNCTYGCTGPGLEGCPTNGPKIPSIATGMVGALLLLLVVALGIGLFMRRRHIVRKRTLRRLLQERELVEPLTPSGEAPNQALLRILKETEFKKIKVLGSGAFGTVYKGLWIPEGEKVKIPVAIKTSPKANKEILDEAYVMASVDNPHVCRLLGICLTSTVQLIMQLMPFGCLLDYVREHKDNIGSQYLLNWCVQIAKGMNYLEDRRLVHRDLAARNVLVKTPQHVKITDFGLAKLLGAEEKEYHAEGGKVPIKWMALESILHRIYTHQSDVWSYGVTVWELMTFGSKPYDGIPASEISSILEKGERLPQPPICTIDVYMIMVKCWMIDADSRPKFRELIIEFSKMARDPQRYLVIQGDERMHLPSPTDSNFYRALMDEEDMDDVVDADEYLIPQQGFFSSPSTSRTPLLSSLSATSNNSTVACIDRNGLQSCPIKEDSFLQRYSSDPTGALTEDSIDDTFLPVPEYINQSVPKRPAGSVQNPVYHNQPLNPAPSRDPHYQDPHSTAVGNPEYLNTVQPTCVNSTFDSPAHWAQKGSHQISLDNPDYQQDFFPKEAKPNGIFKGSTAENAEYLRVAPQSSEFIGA
Summary of the method: as §1

EGFR^L858R/T790M/C^797S = EGFR^L858R/T790M/C^797S (Homo sapiens, UniProt P00533, C797S/L858R/T790M); assay: in vitro kinase assay (HTRF KinEASE-TK kit), LTC; type: biochemical; settings: kinase inhibition
From the text: as §2

EGFR^L58R/T790M = EGFR^L58R/T790M (Homo sapiens, UniProt P00533, L858R/T790M); assay: in vitro kinase assay (HTRF KinEASE-TK kit), LT; type: biochemical; settings: kinase inhibition
Sequence of EGFR^L58R/T790M (P00533 25-1210 T790M/L858R): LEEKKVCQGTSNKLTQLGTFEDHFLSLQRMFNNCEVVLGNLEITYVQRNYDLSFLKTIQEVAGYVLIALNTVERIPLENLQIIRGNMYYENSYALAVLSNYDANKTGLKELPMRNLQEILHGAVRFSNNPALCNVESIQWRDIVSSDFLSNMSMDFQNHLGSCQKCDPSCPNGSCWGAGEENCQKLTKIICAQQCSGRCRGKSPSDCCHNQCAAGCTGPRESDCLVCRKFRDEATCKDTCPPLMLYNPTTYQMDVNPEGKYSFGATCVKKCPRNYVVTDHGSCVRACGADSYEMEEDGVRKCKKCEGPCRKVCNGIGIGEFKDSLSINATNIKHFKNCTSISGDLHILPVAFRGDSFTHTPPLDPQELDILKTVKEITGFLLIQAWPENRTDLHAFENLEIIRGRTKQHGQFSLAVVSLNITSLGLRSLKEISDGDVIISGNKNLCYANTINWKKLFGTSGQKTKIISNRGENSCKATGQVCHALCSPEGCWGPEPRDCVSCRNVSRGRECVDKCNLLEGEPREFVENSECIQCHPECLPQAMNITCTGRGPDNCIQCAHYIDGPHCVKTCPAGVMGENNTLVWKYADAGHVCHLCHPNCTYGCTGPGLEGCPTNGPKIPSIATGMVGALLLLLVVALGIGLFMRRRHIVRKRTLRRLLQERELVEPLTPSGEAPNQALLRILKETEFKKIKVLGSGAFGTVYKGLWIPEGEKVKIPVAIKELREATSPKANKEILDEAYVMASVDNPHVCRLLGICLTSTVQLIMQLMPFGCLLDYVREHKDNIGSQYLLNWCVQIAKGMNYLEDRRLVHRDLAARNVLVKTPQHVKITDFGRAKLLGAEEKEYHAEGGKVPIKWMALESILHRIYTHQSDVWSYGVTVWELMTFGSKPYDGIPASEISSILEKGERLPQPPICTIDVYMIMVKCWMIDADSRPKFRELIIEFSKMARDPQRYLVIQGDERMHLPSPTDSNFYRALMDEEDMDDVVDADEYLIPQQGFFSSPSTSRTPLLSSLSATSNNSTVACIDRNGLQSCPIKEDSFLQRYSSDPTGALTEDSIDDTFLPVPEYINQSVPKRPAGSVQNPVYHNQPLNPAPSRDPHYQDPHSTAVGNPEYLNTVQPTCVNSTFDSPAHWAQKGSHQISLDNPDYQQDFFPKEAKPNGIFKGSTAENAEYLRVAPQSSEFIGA
From the text: as §2

[1] = target: Ba/F3 EGFR-Del19/T790M/C797S (Homo sapiens, UniProt P00533, T790M/C797S, cells depend on it, form not given); assay: Ba/F3 viability assay (CellTiter-Glo), DTC; type: cell-based; settings: anti-proliferation, read-out: BaF3 DTC IC50
Sequence of Ba/F3 EGFR-Del19/T790M/C797S (P00533 with tags, fused parts or gaps DEL746-750/T790M/C797S, form open): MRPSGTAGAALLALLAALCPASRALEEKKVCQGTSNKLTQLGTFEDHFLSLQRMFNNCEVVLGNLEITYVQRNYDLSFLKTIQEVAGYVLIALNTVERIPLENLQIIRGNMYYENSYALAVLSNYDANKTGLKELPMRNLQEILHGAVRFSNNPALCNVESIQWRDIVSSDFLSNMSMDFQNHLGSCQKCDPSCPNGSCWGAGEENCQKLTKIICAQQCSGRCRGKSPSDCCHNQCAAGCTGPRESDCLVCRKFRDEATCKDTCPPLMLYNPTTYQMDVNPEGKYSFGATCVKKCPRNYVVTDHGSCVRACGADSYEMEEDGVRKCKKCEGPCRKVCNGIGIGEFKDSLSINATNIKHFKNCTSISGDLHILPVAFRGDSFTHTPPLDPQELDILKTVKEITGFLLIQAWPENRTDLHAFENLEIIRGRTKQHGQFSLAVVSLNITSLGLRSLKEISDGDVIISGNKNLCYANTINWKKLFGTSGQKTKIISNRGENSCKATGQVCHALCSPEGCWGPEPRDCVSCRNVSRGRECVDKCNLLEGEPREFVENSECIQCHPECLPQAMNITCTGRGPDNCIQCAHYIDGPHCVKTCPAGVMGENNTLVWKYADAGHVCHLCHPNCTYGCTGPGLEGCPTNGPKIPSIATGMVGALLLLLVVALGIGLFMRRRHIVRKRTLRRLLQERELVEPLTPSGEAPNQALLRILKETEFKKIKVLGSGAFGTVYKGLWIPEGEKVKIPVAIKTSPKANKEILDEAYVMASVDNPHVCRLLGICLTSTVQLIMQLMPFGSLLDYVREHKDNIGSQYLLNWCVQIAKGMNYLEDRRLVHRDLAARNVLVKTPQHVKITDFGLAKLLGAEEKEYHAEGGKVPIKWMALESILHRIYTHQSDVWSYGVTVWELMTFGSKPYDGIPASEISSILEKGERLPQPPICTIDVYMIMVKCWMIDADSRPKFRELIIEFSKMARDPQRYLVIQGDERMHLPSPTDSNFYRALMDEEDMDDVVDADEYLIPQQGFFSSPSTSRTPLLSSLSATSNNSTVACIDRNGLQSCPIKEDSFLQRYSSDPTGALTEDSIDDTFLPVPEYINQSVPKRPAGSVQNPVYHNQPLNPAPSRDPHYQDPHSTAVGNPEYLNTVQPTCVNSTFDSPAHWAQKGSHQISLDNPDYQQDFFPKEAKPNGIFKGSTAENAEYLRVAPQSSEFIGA
Summary of the method: as §1

[2] = Mus musculus, BaF3, anti-proliferation

| SMILES | IC50 (Ba/F3 Parental; [2]) | GI50 (Ba/F3 EGFR-Del19/C797S) | IC50 (EGFR^L858R) | GI50 (Ba/F3 EGFR-Del19/T790M) | IC50 (EGFR^L858R/T790M/C^797S) | IC50 (EGFR^L58R/T790M) | GI50 [1] | IC50 (Ba/F3 Parental; anti-proliferation, read-out: BaF3 parental IC50) |
| --- | --- | --- | --- | --- | --- | --- | --- | --- |
| C[C@H]1CCOc2c(cnn2C)-c2nccc(n2)Nc2cc3c(cn2)c(N2CC[C@H](N(C)C)C2)nn31 [(178)] | 0.1 to 1 µM | 0.01 to 0.1 µM | 0.01 to 0.1 µM | 0.01 to 0.1 µM | < 0.01 µM | < 0.01 µM | < 0.01 µM | – |
| C[C@H]1CCOc2c(cnn2C)-c2nccc(n2)Nc2cc3c(cn2)c(N2CC[C@@H](N(C)CCF)C2)nn31 [(179)] | 0.1 to 1 µM | 0.01 to 0.1 µM | < 0.01 µM | < 0.01 µM | < 0.01 µM | < 0.01 µM | < 0.01 µM | – |
| C[C@H]1CCOc2c(cnn2C)-c2nccc(n2)Nc2cc3c(cn2)c(N2CC[C@H](N(C)CCCF)C2)nn31 [(180)] | 0.1 to 1 µM | 0.01 to 0.1 µM | 0.01 to 0.1 µM | 0.01 to 0.1 µM | < 0.01 µM | < 0.01 µM | < 0.01 µM | – |
| C[C@H]1CCOc2c(cnn2C)-c2nccc(n2)Nc2cc3c(cn2)c(N2CC[C@@H](N(C)C)C2)nn31 [(181)] | – | 0.01 to 0.1 µM | < 0.01 µM | 0.01 to 0.1 µM | < 0.01 µM | < 0.01 µM | 0.01 to 0.1 µM | 0.1 to 1 µM |
| C[C@H]1CCOc2c(cnn2C)-c2nccc(n2)Nc2cc3c(cn2)c(-c2cccc(CN(C)C)n2)nn31 [(182)] | 0.1 to 1 µM | 0.01 to 0.1 µM | 0.01 to 0.1 µM | 0.01 to 0.1 µM | < 0.01 µM | < 0.01 µM | < 0.01 µM | – |
| C[C@H]1CCOc2c(cnn2C)-c2nccc(n2)Nc2cc3c(cn2)c(-c2cc(CN(C)C)ccn2)nn31 [(183)] | 0.1 to 1 µM | 0.01 to 0.1 µM | < 0.01 µM | 0.01 to 0.1 µM | < 0.01 µM | < 0.01 µM | < 0.01 µM | – |
| C[C@H]1CCOc2c(cnn2C)-c2nccc(n2)Nc2cc3c(cn2)c(-c2ccc(CN(C)CCF)n2C)nn31 [(184), N-[[5-[(16S)-11,16-dimethyl-13-oxa-2,6,10,11,17,18,22,25-octazapentacyclo[15.5.2.1^3,7.0^8,12.0^20,24]pentacosa-1(22),3,5,7(25),8(12),9,18,20,23-nonaen-19-yl]-1-methyl-pyrrol-2-yl]methyl]-2-fluoro-N-methyl-ethanamine] | 0.1 to 1 µM | 0.01 to 0.1 µM | < 0.01 µM | < 0.01 µM | < 0.01 µM | < 0.01 µM | < 0.01 µM | – |
| C[C@H]1CCOc2c(cnn2C)-c2nccc(n2)Nc2cc3c(cn2)c(-c2cc4c(n2C)CCCN(C)C4)nn31 [(185)] | 0.1 to 1 µM | 0.01 to 0.1 µM | < 0.01 µM | 0.01 to 0.1 µM | < 0.01 µM | < 0.01 µM | 0.01 to 0.1 µM | – |
| C[C@H]1CCOc2c(cnn2C)-c2nccc(n2)Nc2cc3c(cn2)c(-c2ccc(CN4CC[C@@H](N(C)C)C4)n2C)nn31 [(186)] | 0.1 to 1 µM | < 0.01 µM | < 0.01 µM | < 0.01 µM | < 0.01 µM | < 0.01 µM | < 0.01 µM | – |
| C[C@H]1CCOc2c(cnn2C)-c2nccc(n2)Nc2cc3c(cn2)c(-c2ccc(CN4CC[C@H](N(C)C)C4)n2C)nn31 [(187)] | 0.1 to 1 µM | < 0.01 µM | < 0.01 µM | < 0.01 µM | < 0.01 µM | < 0.01 µM | < 0.01 µM | – |
| CC(C)NCc1ccc(-c2nn3c4cc(ncc24)Nc2ccnc(n2)-c2cnn(C)c2OCC[C@@H]3C)n1C [(188)] | 0.1 to 1 µM | < 0.01 µM | < 0.01 µM | < 0.01 µM | < 0.01 µM | < 0.01 µM | < 0.01 µM | – |
| CC(C)N(C)Cc1ccc(-c2nn3c4cc(ncc24)Nc2ccnc(n2)-c2cnn(C)c2OCC[C@@H]3C)n1C [(189)] | 0.1 to 1 µM | < 0.01 µM | < 0.01 µM | < 0.01 µM | < 0.01 µM | < 0.01 µM | < 0.01 µM | – |
| C[C@H]1CCOc2c(cnn2C)-c2nccc(n2)Nc2cc3c(cn2)c(-c2ccc(CN4CCN(CCCF)CC4)n2C)nn31 [(190)] | 0.1 to 1 µM | < 0.01 µM | < 0.01 µM | < 0.01 µM | < 0.01 µM | < 0.01 µM | < 0.01 µM | – |
| CCn1c(CN(C)C)ccc1-c1nn2c3cc(ncc13)Nc1ccnc(n1)-c1cnn(C)c1OCC[C@@H]2C [(191)] | 0.1 to 1 µM | < 0.01 µM | < 0.01 µM | 0.01 to 0.1 µM | < 0.01 µM | < 0.01 µM | < 0.01 µM | – |
| C[C@H]1CCOc2c(cnn2C)-c2nccc(n2)Nc2cc3c(cn2)c(-c2ccc(CN(C)CCCF)n2C)nn31 [(192)] | 0.1 to 1 µM | < 0.01 µM | < 0.01 µM | < 0.01 µM | < 0.01 µM | < 0.01 µM | < 0.01 µM | – |
